Measurements from patent publication US20230106032A1, “IMIDAZOTRIAZINES ACTING ON CANCER VIA INHIBITION OF CDK12” (Bayer Aktiengesellschaft, priority 2020, published 2023).

Key:
CDK12 = target: T1, CDK12 (Homo sapiens, UniProt Q9NYV4); test: CDK12 nuclear protein level: immunofluorescence/high content analysis in CAL-120 cells; format: cell-based; conditions: for DC50: CAL-120 cells, 24 h, nuclear CDK12 staining, read-out: CDK12 degradation IF DC50-[mol/l] (median); for (IC50 CDK12 high ATP) to (Degradation DC50 CDK12) ratio: IC50 CDK12 hATP (Table 2) divided by DC50 CDK12 IF (Table 8)
T1 construct: endogenous in cells; host or cells: CAL-120 human breast cancer cells (DSMZ ACC 459)
T1 sequence (Q9NYV4 whole entry): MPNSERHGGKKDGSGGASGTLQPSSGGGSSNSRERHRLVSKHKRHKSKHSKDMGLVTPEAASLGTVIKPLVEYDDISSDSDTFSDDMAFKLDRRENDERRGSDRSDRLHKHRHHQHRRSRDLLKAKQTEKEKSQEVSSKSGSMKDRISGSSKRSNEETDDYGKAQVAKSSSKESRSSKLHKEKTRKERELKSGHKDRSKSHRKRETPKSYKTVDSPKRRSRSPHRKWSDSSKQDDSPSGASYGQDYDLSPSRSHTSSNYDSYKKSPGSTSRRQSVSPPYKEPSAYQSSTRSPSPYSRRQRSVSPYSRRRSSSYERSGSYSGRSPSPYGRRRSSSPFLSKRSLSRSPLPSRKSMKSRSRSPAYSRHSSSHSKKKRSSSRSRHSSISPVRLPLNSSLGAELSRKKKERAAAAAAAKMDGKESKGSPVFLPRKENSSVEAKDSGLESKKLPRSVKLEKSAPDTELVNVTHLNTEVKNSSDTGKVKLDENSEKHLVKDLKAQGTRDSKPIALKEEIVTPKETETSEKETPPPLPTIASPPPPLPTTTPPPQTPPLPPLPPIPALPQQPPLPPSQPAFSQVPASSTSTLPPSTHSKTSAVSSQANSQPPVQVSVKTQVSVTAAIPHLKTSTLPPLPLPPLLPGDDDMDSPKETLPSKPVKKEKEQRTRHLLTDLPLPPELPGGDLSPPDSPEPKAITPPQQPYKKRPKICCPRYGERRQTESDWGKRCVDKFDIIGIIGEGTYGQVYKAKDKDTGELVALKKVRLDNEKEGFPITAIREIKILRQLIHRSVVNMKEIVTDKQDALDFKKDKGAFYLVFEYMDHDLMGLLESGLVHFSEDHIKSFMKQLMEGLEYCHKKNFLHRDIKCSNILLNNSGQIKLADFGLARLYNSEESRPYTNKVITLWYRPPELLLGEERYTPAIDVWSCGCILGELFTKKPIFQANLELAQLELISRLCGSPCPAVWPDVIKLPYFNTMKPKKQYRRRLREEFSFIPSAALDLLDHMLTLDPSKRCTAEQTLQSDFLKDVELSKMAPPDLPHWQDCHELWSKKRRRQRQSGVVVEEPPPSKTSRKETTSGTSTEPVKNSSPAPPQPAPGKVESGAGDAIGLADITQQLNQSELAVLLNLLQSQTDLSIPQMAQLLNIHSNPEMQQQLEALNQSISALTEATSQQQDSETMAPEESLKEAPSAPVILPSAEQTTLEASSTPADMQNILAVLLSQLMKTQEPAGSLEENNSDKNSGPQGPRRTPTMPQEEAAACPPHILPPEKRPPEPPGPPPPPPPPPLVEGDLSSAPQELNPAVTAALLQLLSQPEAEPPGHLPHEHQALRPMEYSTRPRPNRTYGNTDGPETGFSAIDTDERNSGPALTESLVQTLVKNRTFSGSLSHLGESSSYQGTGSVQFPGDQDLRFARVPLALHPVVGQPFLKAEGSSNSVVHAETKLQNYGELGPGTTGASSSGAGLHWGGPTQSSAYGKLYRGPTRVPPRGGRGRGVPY
T1 sequence (O75909 whole entry partner): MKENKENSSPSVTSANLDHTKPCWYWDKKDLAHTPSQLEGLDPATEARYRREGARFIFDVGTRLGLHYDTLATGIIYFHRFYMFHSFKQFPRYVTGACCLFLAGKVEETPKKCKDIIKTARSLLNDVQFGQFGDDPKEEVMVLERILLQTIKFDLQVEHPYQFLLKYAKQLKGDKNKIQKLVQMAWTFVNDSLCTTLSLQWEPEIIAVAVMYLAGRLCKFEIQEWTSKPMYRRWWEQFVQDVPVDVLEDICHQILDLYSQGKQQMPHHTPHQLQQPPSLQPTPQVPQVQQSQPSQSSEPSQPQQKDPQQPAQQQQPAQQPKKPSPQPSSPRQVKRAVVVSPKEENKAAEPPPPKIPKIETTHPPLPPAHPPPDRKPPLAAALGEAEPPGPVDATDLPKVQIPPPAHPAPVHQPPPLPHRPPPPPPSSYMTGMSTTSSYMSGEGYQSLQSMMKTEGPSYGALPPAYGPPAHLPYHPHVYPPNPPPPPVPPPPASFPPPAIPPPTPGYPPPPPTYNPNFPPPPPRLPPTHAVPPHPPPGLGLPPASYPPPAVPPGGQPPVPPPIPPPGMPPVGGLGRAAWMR
Experimental: In the context of the present invention, the term “DC50 CDK12” refers to the DC50 values obtained according to the assay described in this section (6) herein below, i.e. the DC50 values for the degradation of CDK12.
(§1) CAL-120 human breast cancer cells (DSMZ ACC 459) are seeded in 1536-well microtiter plates (800 cells per well) containing 50 nanoL of compounds in Dose-Response. Control wells received DMSO or Reference Example 1. Plates are then incubated for 24 h at 37° C. in an humidified incubator and fixed with 4% PFA for 10 min. Then immunofluorescence (IF) against CDK12 (CellSignalling CDK12 Antibody #11973, rabbit, 1:100 dilution) is performed using standard IF protocols. Cells are then stained with Hoechst 33342 (Life Technologies, H-1399, 0.1 microg/ml) and imaged on an automated confocal microscopy system (e.g. Perkin Elmer Opera Phenix). Nuclear and cytoplasmic intensity as well as the nuclear/cytoplasmic intensity ratio is determined by automated image analysis using custom generated scripts (MetaXpress). Data is then transferred to Genedata Screener software, normalized to DMSO and control and DC50 values (degrading concentration to achieve 50% reduction of nuclear CDK12 staining intensity relative to controls) are reported.

[1] = test system: BRCA1 mRNA expression in MDA-MB-231 cells; test: qRT-PCR assay: inhibition of BRCA1 mRNA expression in MDA-MB-231 cells; format: cell-based; conditions: Homo sapiens, 24 h exposure, normalised to GAPDH, read-out: RTqPCR-MDA-MB-231 IC50 [mol/l] BRCA1 (median)
Experimental: Tissue cultured human MDA-MB-231 human breast cancer cells were plated in 500 microL per well at 200,000 cells/well in a 24 well microtiter plate. After 24 h, the cells were exposed continuously for 24 h to test substances (substances were added with Tecan HP D300 Dispenser). RNA was prepared using Qiagen RNeasy MiniKit (#74106), RNA was quantified using a NanoDrop Equipment, and 600 nano gamms of RNA was converted to cDNA using a SuperScript VILO kit (Thermofisher #11755050) followed by qPCR amplification. BRCA1 and ATR gene expression was measured by RT-qPCR and normalised to GAPDH housekeeping gene expression. qPCR primer sets have been purchased from Thermo Fisher Scientific/Applied Biosystems: BRCA1, #Hs 01556193; ATR, #Hs 00992123; GAPDH, #Hs 03929097.

CYCLIN K = CYCLIN K nuclear protein level: immunofluorescence/high content analysis in CAL-120 cells; format: cell-based, human; conditions: 24 h, nuclear CCNK staining, read-out: CYCLIN K degradation IF, DC50-[mol/l] (median)
Experimental: In the context of the present invention, the term “DC50 Cyclin K” refers to the DC50 values obtained according to the assay described in this section (7) herein below, i.e. the DC50 values for the degradation of Cyclin K.
as §1, with “CYCLIN K (ThermoFisher Scientific CCNK” for “CDK12 (CellSignalling CDK12”, “#PA5-85020,” for “#11973,”, “1:200” for “1:100”, “CCNK” for “CDK12”

[2] = test system: MDA-MB-231 human breast cancer cells; test: Proliferation assay MDA-MB-231 (crystal violet); format: cell-based; conditions: 96 h, MDA-MB-231 cells, 4 days, read-out: Prolif-MDA MB231 IC50-[mol/l] (median)
Experimental: (§2) Human tumour cells were originally obtained from the American Type Culture Collection (ATCC), or from the Deutsche Sammlung von Mikroorganismen und Zellkulturen (DSMZ, German Collection of Microorganisms and Cell Cultures). Cultivated tumour cells (CAL-120, human breast adenocarcinoma cells, DSMZ ACC-459; MDA-MB-231, human breast cancer cells, ATCC HTB-26) were plated at a density of 4,000 cells/well in a 96-well multititer plate in 200 microL of their respective growth medium supplemented 10% fetal calf serum. After 24 hours, the cells of one plate (zero-point plate) were stained with crystal violet (see below), while the medium of the other plates was supplemented with the test substances in various concentrations (0 micromol/L, as well as in the range of 0.01-10 micromol/L; the final concentration of the solvent dimethyl sulfoxide was adjusted to 0.1%) using a Tecan HP D300 Digital Dispenser. The cells were incubated for 4 days in the presence of test substances. Cell proliferation was determined by staining the cells with crystal violet: the cells were fixed by adding 20 microL/measuring point of an 11% glutaric aldehyde solution for 15 minutes at room temperature. After three washing cycles of the fixed cells with water, the plates were dried at room temperature. The cells were stained by adding 100 microL/measuring point of a 0.1% crystal violet solution (pH 3.0). After three washing cycles of the stained cells with water, the plates were dried at room temperature. The dye was dissolved by adding 100 microL/measuring point of a 10% acetic acid solution. The extinction was determined by photometry at a wavelength of 595 nm. The change of cell number, in percent, was calculated by normalization of the measured values to the extinction values of the zero-point plate (=0%) and the extinction of the untreated (0 μM) cells (=100%). The IC50 values (inhibitory concentration at 50% of maximal effect) were determined by means of a 4 parameter fit.

[3] = test system: CAL-120 human breast adenocarcinoma cells; test: Proliferation assay CAL-120 (crystal violet); format: cell-based; conditions: 96 h, CAL-120 cells, 4 days, read-out: Prolif-CAL-120_ IC50-[mol/l] (median)
Experimental: as §2

Structure (SMILES)	DC50 (CDK12)	(IC50 CDK12 high ATP) to (Degradation DC50 CDK12) ratio (CDK12)	DC50 (CYCLIN K)	IC50 [2]	IC50 [3]	IC50 [1]
Brc1cnc2c(NCc3nc4ccccc4[nH]3)nc(N3CCOCC3)nn12 [Example 1, N-[(1H-benzimidazol-2-yl)methyl]-7-bromo-2-(morpholin-4-yl)imidazo[2,1-f][1,2,4]triazin-4-amine]	6.8 nM	751	0.876 nM	42 nM	–	10 nM
Fc1cccc(-c2cnc3c(NCc4nc5ccccc5[nH]4)nc(N4CCOCC4)nn23)c1 [Example 3, N-[(1H-benzimidazol-2-yl)methyl]-7-(3-fluorophenyl)-2-(morpholin-4-yl)imidazo[2,1-f][1,2,4]triazin-4-amine]	36 nM	>556	23.9 nM	–	–	> 100 nM
C[C@@H]1CN(c2nc(NCc3nc4ccccc4[nH]3)c3ncc(Br)n3n2)C[C@H](C)O1 [Example 4, N-[(1H-benzimidazol-2-yl)methyl]-7-bromo-2-[rel-(2R,6S)-2,6-dimethylmorpholin-4-yl]imidazo[2,1-f][1,2,4]triazin-4-amine]	13 nM	76	1.14 nM	59.2 nM	53.8 nM	25.9 nM
Fc1ccc2[nH]c(CNc3nc(N4CCOCC4)nn4c(Br)cnc34)nc2c1F [Example 7, 7-bromo-N-[(4,5-difluoro-1H-benzimidazol-2-yl)methyl]-2-(morpholin-4-yl)imidazo[2,1-f][1,2,4]triazin-4-amine]	0.992 nM	1272	0.201 nM	7.93 nM	8.44 nM	6.36 nM
Brc1cnc2c(NCc3nc4ccccc4[nH]3)nc(N3CCNCC3)nn12 [Example 8, N-[(1H-benzimidazol-2-yl)methyl]-7-bromo-2-(piperazin-1-yl)imidazo[2,1-f][1,2,4]triazin-4-amine]	0.527 nM	10707	1.28 nM	14.5 nM	3.25 nM	3.4 nM
Fc1cccc2[nH]c(CNc3nc(N4CCOCC4)nn4c(Br)cnc34)nc12 [Example 12, 7-bromo-N-[(4-fluoro-1H-benzimidazol-2-yl)methyl]-2-(morpholin-4-yl)imidazo[2,1-f][1,2,4]triazin-4-amine]	4.35 nM	1084	0.292 nM	111 nM	49.6 nM	–
OC[C@@H]1CCCCN1c1nc(NCc2nc3ccccc3[nH]2)c2ncc(Br)n2n1 [Example 17, [(2S)-1-(4-{[(1H-benzimidazol-2-yl)methyl]amino}-7-bromoimidazo[2,1-f][1,2,4]triazin-2-yl)piperidin-2-yl]methanol]	7.62 nM	15	3.94 nM	–	19.3 nM	15.7 nM
CN(CC(C)(C)O)c1nc(NCc2nc3ccccc3[nH]2)c2ncc(C(F)(F)F)n2n1 [Example 30, 1-[{4-[(1H-benzimidazol-2-ylmethyl)amino]-7-(trifluoromethyl)imidazo[2,1-f][1,2,4]triazin-2-yl}(methyl)amino]-2-methylpropan-2-ol]	13.8 nM	12	–	17.3 nM	9.95 nM	7.23 nM

The remaining compounds from weak to strong by DC50 (CDK12), led by results:

DC50 (CDK12)	(IC50 CDK12 high ATP) to (Degradation DC50 CDK12) ratio (CDK12)	DC50 (CYCLIN K)	IC50 [2]	IC50 [3]	Structure (SMILES)	IC50 [1]
4.83 nM	1444	3.58 nM	–	103 nM	N#Cc1cnc2c(NCc3nc4ccccc4[nH]3)nc(N3CCOCC3)nn12 [Example 2, 4-{[(1H-benzimidazol-2-yl)methyl]amino}-2-(morpholin-4-yl)imidazo[2,1-f][1,2,4]triazine-7-carbonitrile]	11.1 nM
3.84 nM	>4836	2.31 nM	71 nM	61.4 nM	CN1CCN(c2nc(NCc3nc4ccccc4[nH]3)c3ncc(Br)n3n2)CC1 [Example 6, N-[(1H-benzimidazol-2-yl)methyl]-7-bromo-2-(4-methylpiperazin-1-yl)imidazo[2,1-f][1,2,4]triazin-4-amine]	69 nM
2.07 nM	66	1.16 nM	–	7.97 nM	C[C@@H]1CN(c2nc(NCc3nc4c(F)c(F)ccc4[nH]3)c3ncc(Br)n3n2)C[C@H](C)O1 [Example 5, 7-bromo-N-[(4,5-difluoro-1H-benzimidazol-2-yl)methyl]-2-[rel-(2R,6S)-2,6-dimethylmorpholin-4-yl]imidazo[2,1-f][1,2,4]triazin-4-amine]	6.39 nM
0.575 nM	8519	0.111 nM	9.6 nM	2.04 nM	C[C@@H]1CN(c2nc(NCc3nc4ccccc4[nH]3)c3ncc(Br)n3n2)C[C@H](C)N1 [Example 9, N-[(1H-benzimidazol-2-yl)methyl]-7-bromo-2-[rel-(3R,5S)-3,5-dimethylpiperazin-1-yl]imidazo[2,1-f][1,2,4]triazin-4-amine]	3.52 nM
0.132 nM	10329	0.0632 nM	2.49 nM	0.859 nM	Fc1ccc2[nH]c(CNc3nc(N4CCNCC4)nn4c(Br)cnc34)nc2c1F [Example 10, 7-bromo-N-[(4,5-difluoro-1H-benzimidazol-2-yl)methyl]-2-(piperazin-1-yl)imidazo[2,1-f][1,2,4]triazin-4-amine]	0.548 nM
